# From US7232804B2, “Use of KPV tripeptide for dermatological disorders” (Zengen, Inc., priority 2001, dated 2007)
# Where a SMILES comes first, the peptide text is derived from it.
# What was measured:
# fever = settings: relative to parent peptide or α-MSH(11-13); cited from earlier work
# psoriatic lesions = test: Topical treatment of psoriatic lesions in a subject, KPV in mineral oil vs contralateral Hydrocortisone; settings: for Adverse reactions or side effects: treatment continued for eleven days
# Source text: In a subject with a diagnosed and confirmed greater than ten year history of dermatologically symptomatic psoriasis, KPV was used to treat inflammation, scaling, dryness, pain, erythema, and pruritis. The subject had psoriatic lesions located bilaterally on the volar (palm side) surface of the forearms. The lesions varied in time of existence for greater than ten years with variagated presentation. The subject presented no opportunistic infection of the integument secondary to the psoriatic lesions.
# KPV in a crystalline form was prepared as disclosed in U.S. Pat. No. 5,028,592. Mineral oil was chosen as a carrier for the KPV preparation. One milligram of KPV was administered topically on the affected areas of the integument at a frequency of twice daily. For comparison purposes, a standard dosage amount of Hydrocortisone was placed on the contralateral area of the body of the subject that also manifested the dermatological sequelae of psoriasis. Topical administration was accomplished with standard cotton tipped applicators.
# This treatment was continued for eleven days.
# inflammation = settings: relative to L-form tripeptide α-MSH (11-13); cited from earlier work
compound,measurement,setting,value
"8-13 sequence: α-MSH 8-13 fragment (RWGKPV; Designed polypeptide with anti-inflammatory, anti-bacterial, anti-fungal and antipyretic properties.)",Antipyretic potency,fever,greater than that of the 11-13 sequence
"9-13 sequence: α-MSH 9-13 fragment (WGPKV; Designed polypeptide with anti-inflammatory, anti-bacterial, anti-fungal and antipyretic properties.)",Antipyretic potency,fever,almost devoid of activity
"10-13 sequence: α-MSH(11-13) with glycine added to form the 10-13 sequence (GKPV; Designed polypeptide with anti-inflammatory, anti-bacterial, anti-fungal and antipyretic properties.)",Antipyretic potency,fever,slightly decreased potency
C[C@]12CCC(=O)C=C1CC[C@@H]1[C@@H]2[C@@H](O)C[C@@]2(C)[C@H]1CC[C@]2(O)C(=O)CO [Hydrocortisone],Improvement of symptoms associated with the psoriatic lesions,"psoriatic lesions; KPV one milligram twice daily in mineral oil, Hydrocortisone standard dosage on contralateral side",showed improvement
same,Period of symptom control / relief from symptoms,psoriatic lesions; psoriatic lesions on forearms,three hours
same,Adverse reactions or side effects,psoriatic lesions,telangictasia and atrophy of skin
"CC(C)[C@H](NC(=O)[C@@H]1CCCN1C(=O)[C@@H](N)CCCCN)C(=O)O [KPV, lysine-proline-valine] (H-Lys-Pro-Val-OH)",Adverse reactions or side effects,psoriatic lesions,No adverse reactions or side effects
Ac-[D-K11]-α-MSH 11-13-NH2,Anti-inflammatory activity / general potency,inflammation,same general potency as the L-form
"[Nle^4,D-Phe^7]-α-MSH",Antipyretic potency,fever,approximately ten times more potent than the parent peptide
"α-MSH sequence (4-10): the ""core"" α-MSH sequence (4-10)",Anti-inflammatory activity / general potency,inflammation,little antipyretic and anti-inflammatory activity
same,Antipyretic potency,fever,little antipyretic and anti-inflammatory activity
